Where two headings read alike, the source gives them in different places. Values belong to the compound of their own block, whether it stands above or below them.
Tests used:
[1] = not given; remark: listed apart in the source
[2] = HPLC stability of solid forms stored at 90% RH and 20-25° C.; conditions: for HPLC stability data (chromatographic purity): 90% RH and 20-25° C.
[3] = HPLC stability of solid forms stored at 80° C. in inert atmosphere; conditions: for HPLC stability data (chromatographic purity): 80° C. in inert atmosphere
[4] = Thermal treatment of polymorphic form A at 190-200° C. (prior-art route to amorphous form); assay type: physicochemical; conditions: thermal treatment at 190-200° C.
Protocol: In U.S. Pat. No. 8,106,183 the method of preparation of an amorphous form of Regadenoson is described by heating polymorphic form A at 200° C.; this solid state, differently by polymorphic forms A-C, was not described by the authors by an X-ray diffraction spectrum in order to identify possible characteristic halo-peaks (broad peaks). This amorphous form was prepared according to U.S. Pat. No. 8,106,183 by heating the polymorphic form A over the melting point value of this substance (that for polymorphic form A is 194.5° C.). This method is not industrially applicable and leads to the formation of several side products. […] To the best of our knowledge, this is the only described method for the preparation of amorphous Regadenoson.

[5] = U.S. Pat. No. 8,106,183 / WO2012149196, cited from earlier work

SMILES: CNC(=O)c1cnn(-c2nc(N)c3ncn([C@@H]4O[C@H](CO)[C@@H](O)[C@H]4O)c3n2)c1 [Form A, (1-{9-[(4S,2R,3R,5R)-3,4-dihydroxy-5-(hydroxymethyl)oxolan-2-yl]-6-aminopurin-2yl}pyrazol-4-yl)-N-methylcarboxamide, reference compound]
decrease of chromatographic purity [4]: about 30% | change in the color of the sample ([4]; form A is white before): the color changes to brown | stability of the solid form as described in the literature ([5]; listed as Regadenoson Form A): more stable than polymorphs B and C | HPLC stability data (chromatographic purity) ([2]; time 0 hours): 99.5% | HPLC stability data (chromatographic purity) ([2]; time 96 hours): 99.5% | HPLC stability data (chromatographic purity) ([3]; time 0 hours): 99.5% | HPLC stability data (chromatographic purity) ([3]; time 72 hours): 99.5% | HPLC stability data (chromatographic purity) ([3]; time 96 hours): 99.5%

SMILES: CNC(=O)c1cnn(-c2nc(N)c3ncn([C@@H]4O[C@H](CO)[C@@H](O)[C@H]4O)c3n2)c1 [Form D]
stability of the solid form as described in the literature [5]: stable under inert conditions

SMILES: CNC(=O)c1cnn(-c2nc(N)c3ncn([C@@H]4O[C@H](CO)[C@@H](O)[C@H]4O)c3n2)c1 [Polymorph C]
stability of the solid form as described in the literature [5]: unstable at high temperatures

Second part, led by results:

HPLC stability data (chromatographic purity) (0 h): 99.6% | HPLC stability data (chromatographic purity) (72 h): 99.4% | HPLC stability data (chromatographic purity) (96 h): 99.6% | HPLC stability data (chromatographic purity) ([1]; 0 h): 99.6% | HPLC stability data (chromatographic purity) ([1]; 96 h): 99.7%
SMILES: CNC(=O)c1cnn(-c2nc(N)c3ncn([C@@H]4O[C@H](CO)[C@@H](O)[C@H]4O)c3n2)c1 [Form E]

HPLC stability data (chromatographic purity) (0 h): 99.8% | HPLC stability data (chromatographic purity) (72 h): 99.8% | HPLC stability data (chromatographic purity) (96 h): 99.8% | HPLC stability data (chromatographic purity) ([1]; 0 h): 99.8% | HPLC stability data (chromatographic purity) ([1]; 96 h): 99.8%
SMILES: CNC(=O)c1cnn(-c2nc(N)c3ncn([C@@H]4O[C@H](CO)[C@@H](O)[C@H]4O)c3n2)c1 [Form G, (1-{9-[(4S,2R,3R,5R)-3,4-dihydroxy-5-(hydroxymethyl)oxolan-2-yl]-6-aminopurin-2yl}pyrazol-4-yl)-N-methylcarboxamide]

HPLC stability data (chromatographic purity) (0 h): 99.8% | HPLC stability data (chromatographic purity) (72 h): 99.7% | HPLC stability data (chromatographic purity) (96 h): 99.7% | HPLC stability data (chromatographic purity) ([1]; 0 h): 99.8% | HPLC stability data (chromatographic purity) ([1]; 96 h): 99.8%
SMILES: CNC(=O)c1cnn(-c2nc(N)c3ncn([C@@H]4O[C@H](CO)[C@@H](O)[C@H]4O)c3n2)c1 [Form F, (1-{9-[(4S,2R,3R,5R)-3,4-dihydroxy-5-(hydroxymethyl)oxolan-2-yl]-6-aminopurin-2yl}pyrazol-4-yl)-N-methylcarboxamide]

HPLC stability data (chromatographic purity) ([2]; time 0 hours): 99.7% | HPLC stability data (chromatographic purity) ([2]; time 96 hours): 99.7% | HPLC stability data (chromatographic purity) ([3]; time 0 hours): 99.7% | HPLC stability data (chromatographic purity) ([3]; time 72 hours): 99.7% | HPLC stability data (chromatographic purity) ([3]; time 96 hours): 99.7% | stability to heating ([3]; 80° C., protected atmosphere / dry conditions, up to 96 hours): stable to the heating
SMILES: CNC(=O)c1cnn(-c2nc(N)c3ncn([C@@H]4O[C@H](CO)[C@@H](O)[C@H]4O)c3n2)c1 [Halo Amorphous, (1-{9-[(4S,2R,3R,5R)-3,4-dihydroxy-5-(hydroxymethyl)oxolan-2-yl]-6-aminopurin-2yl}pyrazol-4-yl)-N-methylcarboxamide]
formation of degradation products ([2]; exposed to moisture, 25° C./90% RH up to 96 hours): does not give origin to degradation products | formation of degradation products ([3]; dry conditions, 80° C. up to 96 hours): does not give origin to degradation products
